For series [1] the following is noted: decimal logarithm of the molar aqueous solubility; cited from earlier work.
The nature of series [2]: Solubilization in water or 30% PEG-8000/water, freeze-drying and reconstitution; concentration by HPLC (Example 1). Particulars: for PEG solutions, freeze dried and reconstituted Test 1 / PEG solutions, freeze dried and reconstituted Test 2: 30% PEG-8000, reconstituted with water; for PEG solutions, freeze dried and reconstituted Test 1 / PEG solutions, freeze dried and reconstituted Test 2 / CPEG / Cw: target 200 µM; for CPEG: 30% PEG-8000 / water, 50-fold dilution of 10 mM DMSO stock; for CPEG / Cw: filtered 0.45 µm; for Cw: aqueous solution, 50-fold dilution of 10 mM DMSO solution; for PEG solutions, reconstituted and diluted 1:10 Test 1 / PEG solutions, reconstituted and diluted 1:10 Test 2: diluted 1:10 with water, target 20 µM; for PEG solutions, reconstituted and diluted 1:10 Test 1: 3% PEG-8000, Test 1; for PEG solutions, reconstituted and diluted 1:10 Test 2: 3% PEG-8000, Test 2. The protocol:
Materials and methods. […] The following compounds were obtained from Fluka - Riedel deHaën: phenylacetic acid, p-toluenesulphonamide, carbazol (Vetranal analytical standard), Polyethylene glycol 8000. Stock solutions were prepared in dimethylsulfoxide (Sigma-Aldrich, ACS spectrophotometric grade) at 10 mM concentration by weighing an appropriate amount of each compound and adding the computed DMSO volume with a calibrated variable volume pipet (Eppendorf). A solution of PEG-8000 (30%, w/w) in water in a 50 mL centrifuge tube was prepared by weighing 15.0 g of PEG-8000 and adding water up to 50.0 g.
Solutions were analysed using an Agilent 1100 chromatograph with the following HPLC method: • Column: Waters X-terra 4.6x50 mm, 3.5 µm • Mobile phase A: water/acetonitrile (97/3 by volume) containing 0.1% trifluoroacetic acid • Mobile phase B: acetonitrile containing 0.1% trifluoroacetic acid • Flow = 1 mL/min, injection = 10 µL, detection wavelength 220 nm (8 nm bandwidth) with reference at 400 nm (40 nm bandwidth). • Gradient 1: from 100% A to 60% A in 6 min, down to 40% A in 1 min, followed by 3 min re-equilibration at 100% A. • Gradient 2: from 70% A to 30% A in 6 min, 1 min isocratic elution at 30% A, followed by 3 min re-equilibration at 70% A.
The following solutions were prepared by 50-fold dilution of the DMSO stock solutions: • Target concentration: 200 µM in water • Target concentration: 200 µM in 30% PEG-8000 / water
After equilibration (1 day at room temperature), all solutions were filtered through 0.45 µm cellulose filters (ProFill, 25 mm syringe filters, Alltech). Aliquots were placed in HPLC vials and submitted to analysis. Two 1 mL aliquots of each 30% PEG solution were placed into 14x100 mm pre-weighed test tubes. These tubes were weighed, and placed in liquid nitrogen to freeze the solution, and finally submitted to freeze-drying in a Lio-5P apparatus (5Pascal, Trezzano sul Naviglio, Italy). After one day, the tubes were weighed and water was added with a micropipette in order to match the original solution weight. A fraction of these solutions was diluted 1:10 with water (target concentration: 20 µM).

Series [3] can be described thus: Solubility in various aqueous PEG media, by HPLC (Example 2). Particulars: aqueous with cosolvent or surfactant or cyclodextrin, kinetic from dmso stock, Average solubility, N=3. The protocol: Materials and methods. […] The following compounds were obtained from Fluka - Riedel deHaën: carbazol (Vetranal analytical standard), Polyethylene glycol 8000, Polyethylene glycol 20000, Polyethylene glycol 400. […] Solutions of PEG-8000 and PEG-20000 in water (30%, w/w) were prepared in 50 mL centrifuge tubes by weighing 15.0 g of the corresponding PEG and adding water up to 50.0 g. A solution containing PEG-8000 (10%, w/w) and PEG-400 (20%, w/w) was similarly prepared by mixing 5 g PEG-8000 with […], and adding water up to 50 g.
Results. […] Starting from DMSO stock solutions, dilute solutions with a nominal concentration of 200 µM were prepared by 50-fold dilution with one of three different aqueous PEG medium. After equilibration for 1 day at room temperature, these solutions were filtered through 0.45 µm cellulose filters (ProFill, 25 mm syringe filters, Alltech). Aliquots were placed in HPLC vials and submitted to analysis.

The values that follow come from patent EP1908513A1, “Method for preparing and using chemical collections” (priority 2006, dated 2008).

Each structure is given as a SMILES string. In brackets after ≈: the same amount, converted by molar mass.

On to `O=C(O)Cc1ccccc1` [Compound 1, Phenylacetic acid], for which, in series [1], the LogSw is -0.89. Besides, in series [2], the “PEG solutions, freeze dried and reconstituted Test 1” value turned out to be 181 µM; the “PEG solutions, freeze dried and reconstituted Test 2” value came to 187 µM; the CPEG worked out at 198 µM; the Cw was 200 µM. In series [2], the “PEG solutions, reconstituted and diluted 1:10 Test 1” value is 17.7 µM; the “PEG solutions, reconstituted and diluted 1:10 Test 2” value was 17.8 µM.
Consider `Cc1ccc(S(N)(=O)=O)cc1` [Compound 2, p-Toluenesulphonamide], for which the LogSw in series [1] is -1.74.
Regarding `CCOC(=O)c1ccc(O)cc1` [Compound 3, Ethyl-p-hydroxybenzoate], the LogSw in series [1] was -2.35.
On to `CC(=O)CC(c1ccccc1)c1c(O)c2ccccc2oc1=O` (stereo not drawn) [Compound 6, Warfarin], for which the LogSw in series [1] is -4.26. Besides, in series [2], the “PEG solutions, freeze dried and reconstituted Test 1” value worked out at 199 µM; the “PEG solutions, freeze dried and reconstituted Test 2” value is 199 µM; the CPEG stood at 198 µM; the Cw worked out at 155 µM. Further, in series [2], the “PEG solutions, reconstituted and diluted 1:10 Test 1” value was 20.2 µM; the “PEG solutions, reconstituted and diluted 1:10 Test 2” value came to 20.4 µM.
Broadly, the solubility is the concentration that dissolves in the medium under given conditions. On to `c1ccc2c(c1)[nH]c1ccccc12` [Compound 8, Carbazol], for which the LogSw in series [1] is -5.27. Also, the “measured concentration after ten-fold dilution of the reconstituted PEG lyophilized samples” value in series [2] (3% PEG-8000, range over both tests and both compounds) lay within 19.0 to 19.4 µM. In series [2], the “PEG solutions, freeze dried and reconstituted Test 1” value was 195 µM; the “PEG solutions, freeze dried and reconstituted Test 2” value was 195 µM; the CPEG came to 196 µM; the Cw was 8.6 µM. Besides, in series [2], the “PEG solutions, reconstituted and diluted 1:10 Test 1” value was found to be 19.0 µM; the “PEG solutions, reconstituted and diluted 1:10 Test 2” value is 19.2 µM. Also, the solubility at 1 day in series [3] (20% PEG-400 + 10% PEG-8000, nominal 200 µM) is 187 µM. In series [3] (30% PEG-8000, nominal 200 µM), this molecule registered a solubility at 1 day of 194 µM (≈ 32.4 µg/mL). The molecule also showed a solubility at 1 day in series [3] (30% PEG-20000, nominal 200 µM) of 188 µM (≈ 31.4 µg/mL).
